Measured values: patent US20070197562A1, “Remedies for prostatic hypertrophy” (Yokohama TLO Company, Ltd., priority 2004, published 2007)

Experiments:
[1] = tested on: PC-3 tumor grafts; assay: In vivo effect on PC-3 tumor grafts transplanted on mice; details: PC-3 cells transplanted; CV 5 or 10 mg/kg/day orally in drinking water, first to fifth week; male nude mice
Description: The in vivo effect of the AIIR blocker was examined using the PC-3 human prostatic cancer cells with less expression of AT1 receptors (obtained from American Type Culture Collection, Rockville, Md., USA), and PrSC cells. PC-3 cells (5×10^6 cells) or a mixture of PC-3 and PrSC cells (2.5×10^6 cells each; a total of 5×10^6 cells) were injected subcutaneously in the back of male nude mice of 4 weeks old for forming tumors. Tumors having a diameter of about 5 mm were formed after one week. The above-described mice were divided into three groups: CV (5 mg/kg/day) administered group, CV (10 mg/kg/day) administered group, and non-administered group (Control) (n=4 for each group). The administered groups were orally administered with a specified dose of CV dissolved in drinking water every day from the first to the fifth week after the tumorigenic injection. The size of the tumor (heterograft) on each mouse was measured every week, and the volume was calculated using the formula: major axis×minor axis×minor axis/2. The volume was expressed as relative ratio to the volume in the first week as being 1. The results are shown in FIGS. 8 (PC-3 cells were transplanted) and 9 (a mixture of PC-3 and PrSC cells was transplanted).

[2] = tested on: MAPK phosphorylation in PC-3 cells; assay: MAPK phosphorylation in PC-3 cells cultured in PrSC conditioned media (Western blotting); type: cell-based, human; details: 10% FCS-CM from PrSC with AIIR blocker 10 μM, no angiotensin II; lanes 5 and 6 vs lane 4; 10 minutes
Description: Stromal cells (PrSC) were cultured in a phenol red-free F12 medium containing 0.1% (W/V) BSA, to which angiotensin II (10 μM) was added alone or in combination with losartan (“Los”; 10 μM). The culture medium was collected 24 hours after the addition, and used as a conditioned medium (“0.1% BSA-CM”).
Stromal cells (PrSC) were cultured in a phenol red-free F12 medium containing 10% (V/V) FCS, to which CV (10 μM) or losartan (10 μM) was added. The culture medium was collected 24 hours after the addition, and used as a conditioned medium (“10% FCS-CM”) with no addition of angiotensin II. 10% FCS-CM with no additive was also prepared in the same manner.
3,000,000 PrSC cells were used for each of the above 10-1 and 10-2
PC3 cells (prostate cancer cells) were cultured for 24 hours in a phenol red-free F12 medium supplemented with 0.1% (W/V) BSA. Then the medium was replaced with one of the conditioned media prepared as described above, and the cells were collected 10 minutes later. Total cellular proteins were extracted as described below. Similar protocol was done in parallel for PC-3 cells without using any conditioned medium (“Control”).
The cells were washed twice with an ice-cold phosphate buffer (PBS), and lysed in 200 μL of an ice-cold cell lysis solution (lysis buffer; 20 mM of Tris (pH8.0), 137 mM of NaCl, 10% of glycerol, 0.1% of SDS, 0.5% of Nonidet P-40 (trade name), 100 mM of sodium fluoride, […] of sodium orthovanadate, 1 mM of EGTA, 2 mM of phenylmethylsulfonyl fluoride, […] of leupeptin, and […] of aprotinin). The mixture was centrifuged. Subsequently, the supernatant was collected.
The resulting protein sample was subjected to SDS-PAGE in the routine manner, and the MAPK phosphorylation was determined by Western blotting using an anti-phospho-MAP kinase antibody or an anti-MAP kinase antibody) (both were purchased from Cell Signaling Technology (Beverly, Mass.)) as the detecting antibody.
From the obtained results, the expression levels of pMAPK and MAPK bands were determined using NIH image software. On the basis of the results, the pMAPK/MAPK ratio in each lane was calculated, and then the ratio (“pMAPK ratio”) of the obtained value of each lane to that of the lane 1 (“Control”) was calculated by taking the value of Control as 1.

SMILES: CCOc1nc2cccc(C(=O)OC(C)OC(=O)OC3CCCCC3)c2n1Cc1ccc(-c2ccccc2-c2nnn[nH]2)cc1 (centres unmarked) [CV, 1-(cyclohexyloxycarbonyloxy)ethyl 2-ethoxy-1-[[2′-(1H-tetrazole-5-yl)biphenyl-4-yl]methyl]-1H-benzimidazole-7-carboxylate]
- proliferation (relative tumor volume) vs Control [1]: suppression of proliferation was observed for the CV administered groups as compared to “Control”, but the effect was not so remarkable
- MAPK phosphorylation in PC-3 cells [2]: suppressed
